# Test results from US20230105108A1, “COMPOUNDS FOR THE TREATMENT OF BACTERIAL INFECTIONS AND POTENTIATION OF ANTIBIOTICS” (GEORGIA STATE UNIVERSITY RESEARCH FOUNDATION, INC., priority 2019, published 2023).
# Structures can show the parent of a compound that is named as a salt.
# How the values were obtained:
# HEK293 cells = assay: Cytotoxicity on mammalian cells (CCK-8), HEK293; format: cell-based; settings: Homo sapiens, HEK293
# Summary of the method: (§1)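 Cells seeded a day ahead to ~80% confluency, exposed to varied compound concentrations for 24 h at 37° C, 5% CO2. CCK-8 added for a further 2 h and OD 450 nm read; viability expressed as percent of untreated control.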
# [1] = Cytotoxicity on mammalian cells (CCK-8), HEK293; format: cell-based; settings: human, HEK293 cells; HEK293 cell line; 24 h
# Summary of the method: as §1
# B. subtilis = assay: MIC determination and sensitization fold on B. subtilis; format: cell-based; settings: B. subtilis
# E. coli (ATCC 25922) = assay: MIC determination, sensitization fold and FIC index on E. coli; format: cell-based
# Summary of the method: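 E. coli in cation-adjusted Mueller Hinton II, 5×10^5 CFU/ml, 24 h at 37 °C shaking; rifampicin two-fold serial dilutions with or without fixed sensitizer (10 μM).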
# MRSA and E. coli = assay: Composition of mixed MRSA and E. coli under antibiotic pressure; format: cell-based; settings: 1.5 μg/ml MD-108 and 8 ng/ml trovafloxacin
# Protocol: (§2) FIG. 11 contains graphs showing that MD-108 can change the composition between MRSA and E. coli (Panel A) or MRSA and B. subtilis (Panel B) when the bacteria strains are under the same antibiotic pressure.
# (§3) As a proof of concept, the relative ratio of E. coli and MRSA or B. subtilis and MRSA was measured with and without MD-108 (FIGS. 11A and B). […] When supplied with 1.5 μg/ml MD-108 and 8 ng/ml trovafloxacin, the MRSA inhibition was achieved, leaving E. coli as the dominant species (89% of the bacteria population).
# MRSA (ATCC 33592) = assay: MIC determination and sensitization fold on MRSA; format: cell-based, methicillin-resistant Staphylococcus aureus; settings: MRSA; rifampicin; compound at 3 μM
# [2] = Cytotoxicity on mammalian cells (CCK-8), NIH3T3; format: cell-based; settings: mouse, NIH3T3 cells, 3T3 cell line
# Summary of the method: as §1
# M. smegmatis = assay: MIC on mycobacteria; format: cell-based, Mycobacterium smegmatis; settings: Mycolicibacterium smegmatis, read-out: MIC on mycobacteria
# [3] = Cytotoxicity in H9c2 cells (CCK-8); format: cell-based; settings: rat, H9c2 cells; H9c2 cell line
# Summary of the method: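 H9c2 cells were grown in DMEM with 10% FBS, seeded the day before, and exposed to a range of di-amidine concentrations for 24 h at 37 °C, 5% CO2. Viability was read by CCK-8 after 3 h at 37 °C as absorbance at 450 nm.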
# MRSA and B. subtilis = assay: Composition of mixed MRSA and B. subtilis under antibiotic pressure; format: cell-based; settings: 8 ng/ml trovafloxacin and 1.5 μg/ml MD-108
# Protocol: as §2, §3
# E. coli expressing mcr-1 = assay: Ex vivo skin burn infection model, mcr-1 positive E. coli; settings: human skin burn, hypromellose gel; 3‰ (w/w)
# Protocol: To achieve topical application, compounds were formulated as hypromellose gel. […] After that, skin was loaded with hypromellose gel with different antibiotics and cultured at 37° C. for 24 hours. After 24 hours incubation, the skin sample was homogenized and the supernatants were serially diluted and plated on agar plates, from which bacterial counts on the skin was calculated. […] 1‰ polymyxin B hypromellose gel was used as positive control.
# [4] = tested on: NDM-1 expressing E. coli strain; assay: microbe, parasite or virus in culture; format: cell-based
# [5] = tested on: A. baumannii (ATCC 17978); assay: MIC, sensitization fold and FIC index on A. baumannii; format: cell-based
# E. coli = assay: Lysozyme assay (outer membrane disruption); format: cell-based; settings: 50 μg/ml lysozyme, 25 μg/ml sensitizer, 10 min
# Protocol: Lysozyme assay to evaluate the disruption of Gram-negative bacteria out membrane by bacterial sensitizers. Lysozyme assay was performed based on literature reported method. E. coli was cultured in Mueller Hinton II cation-adjusted broth for overnight, centrifuged at 3000 g for 10 min, washed with HEPES buffer (pH=7.2) and then centrifuged again to obtain bacteria pallet. The pallet was then gently resuspended in HEPES buffer with 5 mM NaCN to obtain an E. coli suspension with OD600 between 0.8˜1.0. On a 96-well plate, each well was supplied with 100 μl lysozyme solution (100 μg/ml) containing 50 or 100 μg/ml bacterial sensitizers in HEPES buffer. To each well was added 100 μl E. coli suspension. The final concentration of lysozyme was 50 μg/ml. The plate was incubated at room temperature for 10 min and the OD600 was recorded. E. coli was also incubated with bacterial sensitizers in the absence of lysozyme to test if bacterial sensitizers would directly induce bacterial lysis. E. coli that was incubated with lysozyme alone or E. coli without any treatment were also used as negative control.
# [6] = tested on: mcr-1 over-expressing E. coli strains; assay: microbe, parasite or virus in culture; format: cell-based
compound,measurement,setting,value
"Cc1cc(CCc2ccc(C(=N)N)cc2)cc(CCc2ccc(C(=N)N)cc2)c1 [MD-108, 4,4′-((5-methyl-1,3-phenylene)bis(ethane-2,1-diyl))dibenzimidamide dihydrochloride]",IC50,HEK293 cells,50 µM
same,CC50 at 24 h,[1],50 µM
same,Sensitization fold,"B. subtilis; erythromycin, compound at 6 μM",32-fold at 6 μM.
same,MIC,"B. subtilis; Bacillus subtilis, 24 h, compound alone, read-out: MIC",25 µM
same,Sensitization fold,"E. coli (ATCC 25922); 10 μM compound, rifampicin as the antibiotic (Table 6)",16 fold
same,Sensitization fold,"E. coli (ATCC 25922); E. coli, rifampicin, compound at 10 μM",16-fold at 10 μM.
same,Sensitization fold,"E. coli (ATCC 25922); E. coli, rifampicin, compound at 25 μM",32-fold at 25 μM;
same,MIC,"E. coli (ATCC 25922); Escherichia coli, ATCC25922, 24 h",100 µM
same,E. coli share of the bacteria population,MRSA and E. coli,89%
same,Sensitization fold,MRSA (ATCC 33592),16-fold at 3 μM
same,CC50 at 24 h,[2],50 µM
same,MIC,M. smegmatis,6 to 12 µM
same,CC50 at 24 h,[3],12.5 µM
same,B. subtilis share of the composition,MRSA and B. subtilis,99.5%
Polymyxin B,effect on bacterial load as compared with vehicle group,E. coli expressing mcr-1,only had minor effects
same,MIC of AB with 5 μg/ml MD-124,[4]; NDM-1 expressing E. coli,0.32 µg/mL
same,Sensitization fold with 5 μg/ml MD-124,[4]; NDM-1 expressing E. coli towards the antibiotic,8 fold
same,MFC of AB only,"[4]; NDM-1 expressing E. coli, antibiotic alone",2.5 µg/mL
same,MIC of AB with 5 μg/ml MD-124,[5]; A. baumannii,0.04 µg/mL
same,Sensitization fold with 5 μg/ml MD-124,[5]; A. baumannii towards the antibiotic,4 fold
same,MFC of AB only,"[5]; A. baumannii, antibiotic alone",1.6 µg/mL
same,MIC of AB only,"E. coli (ATCC 25922); E. coli (wild type), antibiotic alone",1.2 µg/mL
same,Sensitization fold,"E. coli (ATCC 25922); E. coli towards the antibiotic, MD-124 5 μg/ml",32 fold
same,MIC of AB with MD-124,"E. coli (ATCC 25922); E. coli, MD-124 concentration 5 μg/ml",0.04 µg/mL
same,bacterial lysis by lysozyme in the presence of sensitizer,E. coli,led to bacterial lysis
same,MIC of AB with 5 μg/ml MD-124,[6]; mcr-1 over-expression E. coli strain (MIC of polymyxin B 30 μg/ml),1 µg/mL
same,Sensitization fold with 5 μg/ml MD-124,[6]; mcr-1 over-expression E. coli strain towards the antibiotic,30 fold
same,MIC of Rif polymyxin B,[6]; strain mcr-1 A,10 µg/mL
same,MIC of Rif polymyxin B,[6]; strain mcr-1 B,30 µg/mL
